Results taken from patent publication US20230150997A1, “EIF4E INHIBITORS AND USES THEREOF” (PIC Therapeutics, Inc., priority 2021, published 2023).

Target: T1, Human eIF4E (Homo sapiens, UniProt P06730)
T1 construct: Human eIF4E (aa 28-217) with a C-terminal His-tag; made in house
Assay: Human eIF4E/4G2 binding assay (TR-FRET)
Details: purified human eIF4E (aa 28-217), biotin labeled 4G2 peptide, 4 hours preincubation at room temperature
Description: Example 3. Compound Testing in Human eIF4E/4G2 Binding Assay
Human eIF4E (aa 28-217) with a C-terminal His-tag was expressed in E. coli in inclusion bodies. The protein was solubilized with 8 M urea and purified under denaturing conditions using nickel-charged HisTrap HP columns (GE Healthcare). The purified protein was then refolded by diluting in 20 mM Hepes pH 7.0, 0.5 M NaCl, 1 mM DTT, 1 mM EDTA, 0.5 M arginine plus 6 M urea, and then dialyzing overnight into the same buffer without the urea. The protein was further dialyzed into 20 mM Hepes, pH 6.5, 50 mM NaCl, 1 mM EDTA, 1 mM DTT, and concentrated using Hitrap SP sepharose FF columns (GE Healthcare). The concentrated protein was dialyzed into 20 mM Hepes, pH 7.0, 0.5 M NaCl, 5 mM DTT and 10% glycerol, and stored at -80° C. until use.
Test compounds (3.43 mM stock in DMSO) were diluted 2-fold in series in DMSO (10 concentration points). Compound solutions (1.2 µl/well) were added into black 384-well polypropylene microplates (Matrix, Thermal Scientific). Twenty-two microliters per well of Assay Buffer (50 mM NaPi, pH 6.5, 50 mM KCl, 1 mM DTT and 0.5 mg/ml gamma globulin) and eight microliters per well of 82.5 nM purified eIF4E in Assay Buffer were added. The samples were incubated at room temperature (20-23° C.) for 4 hours. Biotin labeled 4G2 peptide (Ac-Lys-Gln-Tyr-Asp-Arg-Glu-Phe-Leu-Leu-Asp-Phe-Gln-Phe-Met-Pro-Lys(Aha-Bio)-NH2, 1.75 µM stock in DMSO) was diluted to 0.14 µM in Assay Buffer (without DTT) and 5 µl/well was added. The samples were incubated at room temperature for 20 min. Five microliters per well of 6.4 nM Eu-streptavidin (Eu-SA, Perkin Elmer) and 80 nM Allophycocyanin (APC)-anti His antibody (Columbia Biosciences) in Assay Buffer (without DTT) were then added and the samples were incubated at room temperature for 20 min.
Assay signals were monitored by reading excitation at 340 nm and emission fluorescence at 615 nm and 665 nm on an Envision reader (Perkin Elmer). Normalized TR-FRET (time-resolved fluorescence resonance energy transfer) assay signal (Rn) was calculated by the formula: Rn = [(A-Ba-C x D)/(D-Bd)] x (Dc- Bd) • Where A is the fluorescence intensity of the sample at 665 nm, • D is the fluorescence intensity of the sample at 615 nm, • Ba and Bd are plate backgrounds at 665 nm and 615 nm, respectively, • Dc is the fluorescence intensity of 0.78 nM Eu-SA in the assay buffer at 615 nm • The cross-talk factor (C) is determined by the following formula: • C = (Ac- Ba)/(Dc-Bd) • Where Ac is the fluorescence intensity of 0.78 nM Eu-SA in the assay buffer at 665 nm.
IC50 values were calculated using xLFit program (IDBS). Table 2 below lists […] of some compounds, wherein A represents IC50 ≤ 0.5 µM; B represents 0.5 uM < IC50 ≤ 1 µM; and C represents IC50 > 1 µM.

T1 sequence (P06730 28-217): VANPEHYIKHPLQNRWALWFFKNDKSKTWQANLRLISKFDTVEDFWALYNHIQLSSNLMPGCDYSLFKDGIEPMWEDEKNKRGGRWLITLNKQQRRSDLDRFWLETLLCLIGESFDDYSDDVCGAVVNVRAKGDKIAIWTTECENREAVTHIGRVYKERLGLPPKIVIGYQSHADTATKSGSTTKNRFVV

Row | IC50 | Structure (SMILES)
1 | ≤ 500 nM | COCCOc1ccc(-c2nc(Nc3ncc(-c4cccs4)cc3C(=O)O)sc2CC(C)C)cc1C(F)(F)F [I-58]
2 | ≤ 500 nM | COc1cc(-c2nc(Nc3ncc(-c4cccs4)cc3C(=O)O)sc2CC(C)C)ccc1C(F)(F)F [I-77]
3 | ≤ 500 nM | COCCOc1ccc(-c2nc(Nc3ncc(-c4cc(C)cs4)cc3C(=O)O)sc2CC(C)C)cc1 [1-35]
4 | ≤ 500 nM | COCCOc1ccc(-c2nc(Nc3ncc(-c4cccs4)cc3C(=O)O)sc2CC(C)(C)C)cc1F [I-65]
5 | 500 to 1000 nM | COc1ccc(-c2nc(Nc3ncc(-c4cccs4)cc3C(=O)O)sc2C2CC2)cc1 [I-18]
6 | > 1000 nM | CNCCOc1ccc(-c2nc(Nc3ncc(-c4cccs4)cc3C(=O)O)sc2CC(C)C)cc1Cl [I-3, 2-((4-(3-chloro-4-(2-(methylamino)ethoxy)phenyl)-5-isobutylthiazol-2-yl)amino)-5-(thiophen-2-yl)nicotinic acid]
7 | ≤ 500 nM | COCCOc1ccc(-c2nc(Nc3ccc(-c4cccs4)cc3C(=O)O)sc2CC(C)C)cc1F [I-64]
8 | > 1000 nM | COCCOc1cccc(-c2nc(Nc3ncc(-c4cccs4)cc3C(=O)OC)sc2CC(C)C)c1 [I-148, methyl 2-((5-isobutyl-4-(3-(2-methoxyethoxy)phenyl)thiazol-2-yl)amino)-5-(thiophen-2-yl)nicotinate]
9 | ≤ 500 nM | CC(C)Cc1sc(Nc2ncc(-c3cccs3)cc2C(=O)O)nc1-c1ccc2c(c1)OC(C)(C)O2 [I-125]
10 | 500 to 1000 nM | CC(C)Cc1sc(Nc2ncc(-c3cccs3)cc2C(=O)O)nc1-c1ccc(OC(F)F)cc1 [I-15]
11 | 500 to 1000 nM | COCCOc1ccc(-c2nc(Nc3cc(-c4ccccc4)sc3C(=O)O)sc2CC(C)C)cc1 [I-23]
12 | > 1000 nM | O=C(O)c1sc(-c2ccccc2)cc1Nc1nc(-c2ccc(O)cc2)c(C2CC2)s1 [I-24]
13 | 500 to 1000 nM | COc1ccc(-c2nc(Nc3cnc(-c4cccs4)cc3C(=O)O)sc2CC(C)C)cc1F [I-71]
14 | ≤ 500 nM | COCCOc1ccc(-c2nc(Nc3ncc(-c4cc(C)cs4)cc3C(=O)O)sc2CC(C)C)cc1F [I-42]
15 | 500 to 1000 nM | COCCOc1ccc(-c2nc(Nc3ncc(-c4cccs4)cc3C(=O)O)sc2CCOC)cc1F [I-50]
16 | ≤ 500 nM | COCCOc1ccc(-c2nc(Nc3ncc(-c4ccc(C)s4)cc3C(=O)O)sc2CC(C)C)cc1Cl [I-43]
17 | ≤ 500 nM | CC(C)Cc1sc(Nc2ncc(-c3cccs3)cc2C(=O)O)nc1-c1cccs1 [I-126]
18 | ≤ 500 nM | COc1cccc(-c2nc(Nc3ncc(-c4cccs4)cc3C(=O)O)sc2CC(C)C)c1 [I-78]
19 | ≤ 500 nM | COc1cc(-c2nc(Nc3ncc(-c4cccs4)cc3C(=O)O)sc2CC(C)C)ccc1Cl [I-74]

Row | IC50 | Structure (SMILES)
20 | ≤ 500 nM | CCOc1cc(-c2nc(Nc3ncc(-c4cccs4)cc3C(=O)O)sc2CC(C)C)ccc1Cl [I-80]
21 | ≤ 500 nM | COCCOc1ccc(-c2nc(Nc3ncc(-c4cccs4)cc3C(=O)O)sc2CCC(C)C)cc1F [I-46]
22 | > 1000 nM | COCCOc1ccc(-c2nc(Nc3ncc(-c4cccs4)cc3C(=O)OC)sc2CC(C)C)cc1F [I-53, methyl 2-((4-(3-fluoro-4-(2-methoxyethoxy)phenyl)-5-isobutylthiazol-2-yl)amino)-5-(thiophen-2-yl)nicotinate]
23 | ≤ 500 nM | COCCOc1cccc(-c2nc(Nc3ncc(-c4cccs4)cc3C(=O)O)sc2CC(C)C)c1 [I-122, 2-((5-isobutyl-4-(3-(2-methoxyethoxy)phenyl)thiazol-2-yl)amino)-5-(thiophen-2-yl)nicotinic acid]
24 | > 1000 nM | CCN(CC)CCOCCOc1cccc(-c2nc(Nc3ncc(-c4cccs4)cc3C(=O)O)sc2CC(C)C)c1 [I-117]
25 | ≤ 500 nM | COCCOc1ccc(-c2nc(Nc3ncc(-c4nccs4)cc3C(=O)O)sc2CC(C)C)cc1F [I-51]
26 | ≤ 500 nM | CC(C)Cc1sc(Nc2ncc(-c3cccs3)cc2C(=O)O)nc1-c1cccc(OCC(F)(F)F)c1 [I-102]
27 | ≤ 500 nM | COCCOc1ccc(-c2nc(Nc3ncc(-c4ccc(C)s4)cc3C(=O)O)sc2CC(C)C)cc1F [I-41]
28 | ≤ 500 nM | CC(C)Cc1sc(Nc2ncc(-c3cccs3)cc2C(=O)O)nc1-c1ccc(OC2CC2)cc1 [I-8]
29 | ≤ 500 nM | COc1cc(-c2nc(Nc3ncc(-c4cccs4)cc3C(=O)O)sc2CCC(C)C)ccc1F [I-82]
30 | ≤ 500 nM | Cc1ccc(-c2nc(Nc3ncc(-c4cccs4)cc3C(=O)O)sc2CC(C)C)cc1OC(C)C [I-114]
31 | ≤ 500 nM | COCCOc1cc(C)cc(-c2nc(Nc3ncc(-c4cccs4)cc3C(=O)O)sc2CC(C)C)c1 [I-118]
32 | 500 to 1000 nM | CCOc1cccc(-c2nc(Nc3cc(C(=O)O)c(-c4cccs4)cn3)sc2CC(C)C)c1 [I-130, 2-((4-(3-ethoxyphenyl)-5-isobutylthiazol-2-yl)amino)-5-(thiophen-2-yl)isonicotinic acid]
33 | 500 to 1000 nM | O=C(O)c1cc(-c2cccs2)cnc1Nc1nc(-c2ccc(OC3CC3)cc2)c(C2CC2)s1 [I-19]
34 | ≤ 500 nM | CCOc1cccc(-c2nc(Nc3ncc(-c4ccco4)cc3C(=O)O)sc2CC(C)C)c1 [I-115]
35 | ≤ 500 nM | COCCOc1ccc(-c2nc(Nc3ncc(-c4cccs4)cc3C(=O)O)sc2CC2CCCCC2)cc1F [I-72]
36 | ≤ 500 nM | COCCCOc1ccc(-c2nc(Nc3ncc(-c4cccs4)cc3C(=O)O)sc2CC(C)C)cc1Cl [I-48]
37 | ≤ 500 nM | CC(C)Cc1sc(Nc2ncc(-c3cccs3)cc2C(=O)O)nc1-c1ccc(OCC(F)(F)F)cc1 [I-7]
38 | ≤ 500 nM | Cc1csc(-c2cnc(Nc3nc(-c4ccc(OC(F)F)cc4)c(C4CCCC4)s3)c(C(=O)O)c2)c1 [1-39]

Row | IC50 | Structure (SMILES)
39 | ≤ 500 nM | CC(C)Cc1sc(Nc2ncc(-c3cccs3)cc2C(=O)O)nc1-c1ccc(OCCOC(C)C)c(F)c1 [I-67]
40 | 500 to 1000 nM | COc1cc(-c2nc(Nc3ncc(-c4cccs4)cc3C(=O)O)sc2CC(C)C)ccc1F [I-73]
41 | ≤ 500 nM | CC(C)Cc1sc(Nc2ncc(-c3cccs3)cc2C(=O)O)nc1-c1ccc(OCC(N)=O)cc1 [I-17, 2-((4-(4-(2-amino-2-oxoethoxy)phenyl)-5-isobutylthiazol-2-yl)amino)-5-(thiophen-2-yl)nicotinic acid]
42 | ≤ 500 nM | COCCOc1ccc(-c2nc(Nc3ncc(-c4cccs4)nc3C(=O)O)sc2CC(C)C)cc1F [I-54]
43 | 500 to 1000 nM | COCCOc1ccc(-c2nc(Nc3cc(-c4ccccc4)sc3C(=O)O)sc2C2CC2)cc1 [I-20]
44 | ≤ 500 nM | CCOc1cc(-c2nc(Nc3ncc(-c4cccs4)cc3C(=O)O)sc2CC(C)C)ccc1F [I-81]
45 | 500 to 1000 nM | CC(C)Cc1sc(Nc2cc(-c3ccccc3)sc2C(=O)O)nc1-c1ccc(OC2CC2)cc1 [I-14]
46 | ≤ 500 nM | COc1cc(-c2nc(Nc3ncc(-c4cccs4)cc3C(=O)O)sc2CCC(C)C)ccc1C(F)(F)F [I-88]
47 | ≤ 500 nM | CC(C)Cc1sc(Nc2ncc(-c3cccs3)cc2C(=O)O)nc1-c1cccc(OC(C)C)c1 [I-113]
48 | 500 to 1000 nM | COCCOCCOc1ccc(-c2nc(Nc3ncc(-c4cccs4)cc3C(=O)O)sc2CC(C)C)cc1F [I-68]
49 | ≤ 500 nM | COc1cc(-c2nc(Nc3ncc(-c4cccs4)cc3C(=O)O)sc2CCC(C)C)ccc1C [I-108]
50 | ≤ 500 nM | COc1ccc(-c2nc(Nc3ncc(-c4cccs4)nc3C(=O)O)sc2CCC(C)C)cc1F [I-62]
51 | ≤ 500 nM | Cc1ccc(-c2cnc(Nc3nc(-c4ccc(OC(F)F)cc4)c(C4CCCC4)s3)c(C(=O)O)c2)s1 [I-40]
52 | ≤ 500 nM | CCOc1cc(-c2nc(Nc3ncc(-c4cccs4)cc3C(=O)O)sc2CC(C)(C)C)ccc1Cl [I-93]
53 | ≤ 500 nM | CC(C)COc1cc(-c2nc(Nc3ncc(-c4cccs4)cc3C(=O)O)sc2CC(C)(C)C)ccc1Cl [I-97]
54 | 500 to 1000 nM | COc1ccc(-c2nc(Nc3ncc(-c4cccs4)cc3C(=O)O)sc2C2CC2)cc1F [I-28]
55 | ≤ 500 nM | COc1cc(C)cc(-c2nc(Nc3ncc(-c4cccs4)cc3C(=O)O)sc2CC(C)C)c1 [I-109]
56 | 500 to 1000 nM | COCCOc1ccc(-c2nc(Nc3ncc(-c4cccs4)cc3C(=O)O)sc2C2CCCC2)cc1F [I-32]
57 | ≤ 500 nM | CCOc1cccc(-c2nc(Nc3ncc(-c4cccs4)cc3C(=O)O)sc2CC(C)C)c1 [I-79]
